Assay results published in paper PMC4955146, “Virtual screening and experimental validation of novel histone deacetylase inhibitors” (BMC Pharmacology & Toxicology, 2016).

Test system: HDACs in HeLa nuclear extracts
Test: HDAC inhibitory activity assay (fluorometric HDAC inhibitor drug screening kit)
Type: biochemical
Conditions: percentage of the positive control, inhibitor control at 20 μM
Experimental: The HDAC inhibitor drug screening kit (k340-100, BioVision, CA, USA) was used to measure HDAC inhibitory activities of the candidate compounds according to the manufacturer’s instructions. The candidate compounds, assay buffer, and HDAC fluorometric substrate, which comprises an acetylated lysine side chain, were added to HeLa nuclear extracts in a 96-well plate and incubated at 37 °C for 30 min. The reaction was stopped by adding lysine developer, and the mixture was incubated for another 30 min at 37 °C. An additional positive control included incubation with double-distilled water, and the inhibitor control consisted of incubation with Trichostatin A (TSA) at 20 μM. HDAC activities were quantified by a fluorescence plate reader (POLARstar OPTIMA, BMG, BRD) with excitation at 370 nm and emission at 450 nm.

Substance: Trichostatin A [TSA]
- relative enzymatic activity: 12%
